From patent US9663478B2, “Benzotriazine oxides as drugs targeting Mycobacterium tuberculosis” (priority 2011, dated 2017)
Values after ≈ are worked out from the molar mass of the structure shown.

Tests used:
[1] = tested on: H37Rv; experiment: MIC H37Rv (Table E1, Additional BTO Activity Data); type: cell-based; conditions: Mycobacterium tuberculosis
[2] = tested on: RMP-R; experiment: MIC RMP-R (Table E1); type: cell-based
[3] = MP MTT % viable (Table E1); conditions: MP (so in the source)
[4] = tested on: OFX-R; experiment: MIC OFX-R (Table E1); type: cell-based
[5] = tested on: INH-r; experiment: MIC INH-r (Table E1); type: cell-based
[6] = in vitro; conditions: African green monkey, VERO Tox (CC50)
[7] = tested on: NRP Mtb H37Rv cells; experiment: Low-oxygen recovery assay (LORA) MIC; type: cell-based, Mycobacterium tuberculosis; conditions: Mycobacterium tuberculosis, H37RV; NRP Mtb; Tables 1-4 and text; read-out: LORA MIC - ITR
[8] = tested on: Mtb H37Rv; experiment: TB MIC - SRI, resazurin-based microplate assay; type: cell-based, Mycobacterium tuberculosis; conditions: Mycobacterium tuberculosis, H37RV, Tables 1-4 and text; read-out: TB MIC - SRI
[9] = tested on: Mtb H37Rv; experiment: TB MIC - ITR (UIC), Institute for Tuberculosis Research; type: cell-based, Mycobacterium tuberculosis; conditions: Mycobacterium tuberculosis, H37RV; Tables 1-4; read-out: TB MIC - ITR

For `CN(Cc1ccccn1)c1n[n+]([O-])c2cc3c(cc2[n+]1[O-])CCC3` [Cmpd 2], which MIC [1] is on record?
The MIC was 1 µg/mL (≈ 3.09 µM).

With `CN(c1n[n+]([O-])c2cc3c(cc2[n+]1[O-])CCC3)C1(c2ccc(F)cc2)CC1` [Cmpd 4] as the compound, how does the MIC [1] read?
The MIC was 4.6 µg/mL (≈ 12.6 µM).

Which MIC [1] does the source give for `CC(C)(Nc1n[n+]([O-])c2cc3c(cc2[n+]1[O-])CCC3)c1ccc(F)cc1` [Cmpd 5] here?
Its MIC is 4.4 µg/mL (≈ 12.4 µM).

With `CCNc1n[n+]([O-])c2c(Cl)c(OC)ccc2[n+]1[O-]` [Cmpd 6] as the compound, how does the MIC [1] read?
The MIC was 0.4 µg/mL (≈ 1.48 µM).

Which MIC [1] does the source give for `[O-][n+]1nc(NC2(c3ccc(F)cc3)CC2)[n+]([O-])c2cc3c(cc21)CCC3` [Cmpd 7] here?
Its MIC is 17.6 µg/mL (≈ 49.9 µM).

For `COc1cccc(C2CCN(c3n[n+]([O-])c4cc5c(cc4[n+]3[O-])CCC5(C)C)C2)c1OC` (centres unmarked) [Cmpd 8], which MIC [1] is on record?
Its MIC is 0.7 µg/mL (≈ 1.6 µM).

For `CC1(C)CCc2cc3c(cc21)[n+]([O-])nc(N1CCCC1)[n+]3[O-]` [Cmpd 9], which MIC [1] is on record?
The MIC was 0.5 µg/mL (≈ 1.66 µM).

With `[O-][n+]1nc(N2CC3CCCC3C2)[n+]([O-])c2cc3c(cc21)CCC3` (centres unmarked) [Cmpd 10] as the compound, how does the MIC [2] read?
Its MIC is 0.098 µg/mL (≈ 0.314 µM).

And the viability at 0.01 ug/ml [3]?
Its viability at 0.01 ug/ml is 103%.

And the viability at 0.1 ug/ml [3]?
Its viability at 0.1 ug/ml is 94%.

And the viability at 1 ug/ml [3]?
Its viability at 1 ug/ml is 107%.

And the MIC [4]?
Its MIC is 0.195 µg/mL (≈ 0.624 µM).

What about the MIC [5] of the same compound?
The MIC was 0.391 µg/mL (≈ 1.25 µM).

What about the MIC [1] of the same compound?
The MIC was 0.391 µg/mL (≈ 1.25 µM).

Which MIC [2] does the source give for `CN(Cc1ccc(C(F)(F)F)cc1)c1n[n+]([O-])c2cc3c(cc2[n+]1[O-])CCC3` [Cmpd 11] here?
The MIC was 0.024 µg/mL (≈ 0.0615 µM).

And the viability at 0.01 ug/ml [3]?
Its viability at 0.01 ug/ml is 113%.

And the viability at 0.1 ug/ml [3]?
Its viability at 0.1 ug/ml is 108%.

What about the viability at 1 ug/ml [3] of the same compound?
Its viability at 1 ug/ml is 104%.

What about the MIC [4] of the same compound?
The MIC was 0.024 µg/mL (≈ 0.0615 µM).

And the MIC [5]?
Its MIC is 0.195 µg/mL (≈ 0.5 µM).

What about the MIC [1] of the same compound?
The MIC was 0.098 µg/mL (≈ 0.251 µM).

With `COc1ccc(CN(C)c2n[n+]([O-])c3cc4c(cc3[n+]2[O-])CCC4)cc1` [Cmpd 12] as the compound, how does the MIC [2] read?
Its MIC is 0.098 µg/mL (≈ 0.278 µM).

And the viability at 0.01 ug/ml [3]?
Its viability at 0.01 ug/ml is 121%.

And the viability at 0.1 ug/ml [3]?
The viability at 0.1 ug/ml was 94%.

And the viability at 1 ug/ml [3]?
The viability at 1 ug/ml was 88%.

What about the MIC [4] of the same compound?
Its MIC is 0.195 µg/mL (≈ 0.553 µM).

And the MIC [5]?
Its MIC is 0.098 µg/mL (≈ 0.278 µM).

And the MIC [1]?
Its MIC is 0.391 µg/mL (≈ 1.11 µM).

Which MIC [2] does the source give for `[O-][n+]1nc(N2CCC(c3ccccc3F)C2)[n+]([O-])c2cc3c(cc21)CCC3` (centres unmarked) [Cmpd 13] here?
The MIC was 0.049 µg/mL (≈ 0.134 µM).

What about the viability at 0.01 ug/ml [3] of the same compound?
Its viability at 0.01 ug/ml is 161%.

What about the viability at 0.1 ug/ml [3] of the same compound?
Its viability at 0.1 ug/ml is 123%.

What about the viability at 1 ug/ml [3] of the same compound?
The viability at 1 ug/ml was 102%.

What about the MIC [4] of the same compound?
The MIC was 0.024 µg/mL (≈ 0.0655 µM).

What about the MIC [5] of the same compound?
The MIC was 0.098 µg/mL (≈ 0.267 µM).

And the MIC [1]?
The MIC was 0.098 µg/mL (≈ 0.267 µM).

With `CN(Cc1ccc(F)cc1)c1n[n+]([O-])c2cc3c(cc2[n+]1[O-])CCC3` [Cmpd 14] as the compound, how does the MIC [2] read?
Its MIC is 0.049 µg/mL (≈ 0.144 µM).

And the viability at 0.01 ug/ml [3]?
The viability at 0.01 ug/ml was 112%.

And the viability at 0.1 ug/ml [3]?
The viability at 0.1 ug/ml was 82%.

And the viability at 1 ug/ml [3]?
Its viability at 1 ug/ml is 1%.

What about the MIC [4] of the same compound?
The MIC was 0.098 µg/mL (≈ 0.288 µM).

What about the MIC [5] of the same compound?
Its MIC is 0.098 µg/mL (≈ 0.288 µM).

What about the MIC [1] of the same compound?
The MIC was 0.195 µg/mL (≈ 0.573 µM).

For `[O-][n+]1nc(N2CCC(c3ccccc3Cl)C2)[n+]([O-])c2cc3c(cc21)CCC3` (centres unmarked) [Cmpd 15], which MIC [2] is on record?
The MIC was 0.098 µg/mL (≈ 0.256 µM).

What about the viability at 0.01 ug/ml [3] of the same compound?
Its viability at 0.01 ug/ml is 102%.

And the viability at 0.1 ug/ml [3]?
The viability at 0.1 ug/ml was 75%.

What about the viability at 1 ug/ml [3] of the same compound?
Its viability at 1 ug/ml is 58%.

And the MIC [4]?
Its MIC is 0.024 µg/mL (≈ 0.0627 µM).

And the MIC [5]?
The MIC was 0.098 µg/mL (≈ 0.256 µM).

What about the MIC [1] of the same compound?
Its MIC is 0.098 µg/mL (≈ 0.256 µM).

For `COc1ccc(OC)c(C2CCN(c3n[n+]([O-])c4cc5c(cc4[n+]3[O-])CCC5)C2)c1` (centres unmarked) [Cmpd 16], which MIC [2] is on record?
The MIC was 0.195 µg/mL (≈ 0.477 µM).

And the viability at 0.01 ug/ml [3]?
The viability at 0.01 ug/ml was 122%.

And the viability at 0.1 ug/ml [3]?
The viability at 0.1 ug/ml was 97%.

And the viability at 1 ug/ml [3]?
The viability at 1 ug/ml was 108%.

And the MIC [4]?
Its MIC is 0.098 µg/mL (≈ 0.24 µM).

And the MIC [5]?
Its MIC is 0.098 µg/mL (≈ 0.24 µM).

What about the MIC [1] of the same compound?
Its MIC is 0.195 µg/mL (≈ 0.477 µM).

For `[O-][n+]1nc(N2CCC(c3ccc(F)cc3)C2)[n+]([O-])c2cc3c(cc21)CCC3` (centres unmarked) [Cmpd 17], which MIC [2] is on record?
The MIC was 0.027 µg/mL (≈ 0.0737 µM).

And the viability at 0.01 ug/ml [3]?
The viability at 0.01 ug/ml was 104%.

And the viability at 0.1 ug/ml [3]?
The viability at 0.1 ug/ml was 82%.

What about the viability at 1 ug/ml [3] of the same compound?
The viability at 1 ug/ml was 69%.

And the MIC [4]?
Its MIC is 0.049 µg/mL (≈ 0.134 µM).

And the MIC [5]?
The MIC was 0.049 µg/mL (≈ 0.134 µM).

And the MIC [1]?
Its MIC is 0.098 µg/mL (≈ 0.267 µM).

What does the source list for `COc1cccc(C2CCN(c3n[n+]([O-])c4cc5c(cc4[n+]3[O-])CCC5)C2)c1OC` (centres unmarked) [Cmpd 18]?
MIC [2]: 0.391 µg/mL (≈ 0.957 µM); viability at 0.01 ug/ml [3]: 85%; viability at 0.1 ug/ml [3]: 55%; viability at 1 ug/ml [3]: 33%; MIC [4]: 0.049 µg/mL (≈ 0.12 µM); MIC [5]: 0.195 µg/mL (≈ 0.477 µM); MIC [1]: 0.391 µg/mL (≈ 0.957 µM)

Which CC50 at 72 h [6] does the source give for `CCC(COC)Nc1n[n+]([O-])c2ccccc2[n+]1[O-]` (centres unmarked) [Compound 8i, 3-((1-methoxybutan-2-yl)amino)benzo[e][1,2,4]triazine 1,4-dioxide] here?
Its CC50 at 72 h is greater than 50 µg/mL.

And the MIC [7]?
Its MIC is 4.9 µg/mL (≈ 18.5 µM).

And the MIC [8]?
The MIC was 10 µg/mL (≈ 37.8 µM).

And the MIC [9]?
Its MIC is 6.6 µg/mL (≈ 25 µM).
